Experiment [1] concerns the target T1, GABAB receptor (Rattus norvegicus, UniProt Q9Z0U4).
T1 construct: from tissue; host or cells: rat cerebral cortex membranes
Nature of the experiment: [3H]CGP54626 rat brain GABAB receptor binding assay. To be noted: [3H]CGP54626 rat brain binding assay. The procedure: An assay using rat cerebral cortex membranes was used to determine the affinity of GABAB receptor ligands for the GABAB receptor.
An assay buffer of 50 mM Tris pH 7.4 was prepared with 100 μM of isoguvacine, to block GABAA interactions. The assay buffer with isoguvacine was used for dilution of membranes, compounds, and radiolabel.
Rat cerebral cortex membranes were diluted in assay buffer at 1 mg/mL and aliquoted into a 96-well plate at 900 μL/well. Buffer or test compound were added at 20-times final concentration in the buffer at 50 μL/well. Membranes and test compounds or buffer were incubated for 10 min. at room temperature. Radiolableled [S—(R*,R*)]-[3-[[1-(3,4-dichlorophenyl)ethyl]amino]-2-hydroxypropyl](cyclohexylmethyl) phosphinic acid (CGP54626) was then added at 50 μL/well in the buffer at 1-10 nM concentration in 50 μl. The mixture was incubated for 15 min. at room temperature. The assay mixture was filtered using Brandell filtration apparatus and GFB filters, washed twice with 3 mL of 4° C., 50 mM Tris pH 7.4, buffer without isoguvacine. The filters were then dried at room temperature and the dried filters punched out and placed in individual vials. Three (3) mL of scintillation fluid was added to each vial and the radiolabel counted on the scintillation counter. The inverse amount of radiolabel was indicative of binding of a test compound to the GABAB receptor.

Experiment [2] deals with GABAB receptor (Homo sapiens, UniProt Q9UBS5). Nature of the experiment: GABAB receptor agonist or partial agonist activity by binding, electrophysiology, cAMP and/or Ca2+ assay methods (Examples 83-86). The class given is cell-based. An outline of the steps:
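Binding: rat cortex membranes in 50 mM Tris pH 7.4 with 100 μM isoguvacine were preincubated 10 min at RT with compound, then radiolabeled CGP54626 (1-10 nM) was added; filtered and scintillation-counted. cAMP: GABAB R1a2 HEK cells, 1 h RT with 100 μM forskolin, chemiluminescence.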

Experiment [3] deals with T2, recombinant human GABABR1a2 (Homo sapiens, UniProt Q9UBS5).
T2 construct: expressed in transfected cells; host or cells: HEK cells
T2 sequence (Q9UBS5 15-961 limits assumed): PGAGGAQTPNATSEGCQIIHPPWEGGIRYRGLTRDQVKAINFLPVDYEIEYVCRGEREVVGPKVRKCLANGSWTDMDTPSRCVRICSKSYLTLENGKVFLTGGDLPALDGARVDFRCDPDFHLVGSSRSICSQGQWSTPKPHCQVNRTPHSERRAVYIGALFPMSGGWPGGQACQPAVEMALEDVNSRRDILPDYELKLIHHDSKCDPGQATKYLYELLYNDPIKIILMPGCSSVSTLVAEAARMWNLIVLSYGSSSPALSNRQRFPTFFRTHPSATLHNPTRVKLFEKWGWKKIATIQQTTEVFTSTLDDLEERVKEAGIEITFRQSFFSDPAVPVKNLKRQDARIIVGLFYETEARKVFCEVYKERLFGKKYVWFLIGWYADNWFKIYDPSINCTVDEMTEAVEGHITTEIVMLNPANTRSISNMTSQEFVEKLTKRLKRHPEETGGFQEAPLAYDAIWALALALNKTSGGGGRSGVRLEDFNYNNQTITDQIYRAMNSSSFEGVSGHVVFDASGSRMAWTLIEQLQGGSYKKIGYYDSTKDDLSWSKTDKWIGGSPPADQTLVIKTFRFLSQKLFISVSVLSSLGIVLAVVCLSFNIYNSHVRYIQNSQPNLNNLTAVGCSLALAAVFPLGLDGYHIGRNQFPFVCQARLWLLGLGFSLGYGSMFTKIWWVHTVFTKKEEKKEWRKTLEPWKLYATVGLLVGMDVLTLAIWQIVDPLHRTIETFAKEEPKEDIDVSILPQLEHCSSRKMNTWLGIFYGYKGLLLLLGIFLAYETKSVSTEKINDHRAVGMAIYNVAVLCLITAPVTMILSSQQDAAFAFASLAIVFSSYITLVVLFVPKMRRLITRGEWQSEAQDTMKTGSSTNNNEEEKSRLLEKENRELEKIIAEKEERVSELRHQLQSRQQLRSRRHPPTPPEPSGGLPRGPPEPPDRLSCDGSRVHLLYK
T2 sequence (O75899 42-941 partner): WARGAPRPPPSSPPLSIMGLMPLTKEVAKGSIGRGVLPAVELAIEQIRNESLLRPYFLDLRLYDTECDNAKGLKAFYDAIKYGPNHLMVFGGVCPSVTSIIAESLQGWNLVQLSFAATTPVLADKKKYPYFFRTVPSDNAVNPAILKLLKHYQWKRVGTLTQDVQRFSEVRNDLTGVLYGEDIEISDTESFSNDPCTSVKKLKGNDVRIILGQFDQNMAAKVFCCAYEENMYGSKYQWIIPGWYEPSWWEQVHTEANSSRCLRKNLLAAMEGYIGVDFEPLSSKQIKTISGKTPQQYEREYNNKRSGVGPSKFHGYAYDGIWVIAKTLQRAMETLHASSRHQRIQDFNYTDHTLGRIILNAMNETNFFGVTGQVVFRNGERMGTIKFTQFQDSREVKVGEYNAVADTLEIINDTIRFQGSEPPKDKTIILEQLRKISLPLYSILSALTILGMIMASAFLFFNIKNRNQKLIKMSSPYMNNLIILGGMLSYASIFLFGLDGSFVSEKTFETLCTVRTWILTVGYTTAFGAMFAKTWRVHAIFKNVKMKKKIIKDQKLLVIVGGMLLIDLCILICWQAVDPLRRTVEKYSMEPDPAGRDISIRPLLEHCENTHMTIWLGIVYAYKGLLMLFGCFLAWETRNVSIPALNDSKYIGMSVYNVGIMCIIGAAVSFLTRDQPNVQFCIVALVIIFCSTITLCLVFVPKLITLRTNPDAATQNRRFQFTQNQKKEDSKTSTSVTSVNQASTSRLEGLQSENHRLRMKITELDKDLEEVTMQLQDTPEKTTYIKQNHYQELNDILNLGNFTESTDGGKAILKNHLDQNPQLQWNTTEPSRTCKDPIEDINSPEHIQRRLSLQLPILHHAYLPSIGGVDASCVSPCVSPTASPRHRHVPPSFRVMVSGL
Nature of the experiment: cAMP assay for determining GABAB receptor agonist activity. The class given is cell-based. The protocol:
The following procedure was used to determine the level of intracellular cAMP. Recombinant HEK cells expressing the GABAB R1a2 receptor were used in the experiments. cAMP levels were measured using a cAMP XS^+ HitHunter™ Chemiluminescence Assay Kit (90-0075-02, GE Healthcare Biosciences Corp.). Cells were seeded overnight at 5,000 cells per well, in black, clear bottom 96-well plates. The following morning, cells were washed twice with 100 μL PBS per well. Forskolin was weighed out and dissolved in DMSO to a final concentration 100 mM. One-hundred (100) μM forskolin solutions were prepared in PBS with and without test compound at 1-times final concentration. Thirty (30) μL of the test solutions were added to the wells and incubated for 1 h at room temperature. The cAMP concentration was determined according to the protocol described in the cAMP assay kit, maintaining the plate at room temperature and in the dark. Two hours after the final kit reagent was added, the plate bottom was covered with black tape, and the plate read using a 1450 MicroBeta Trilux microplate scintillation and luminescence counter (PerkinElmer, Waltham, Mass.). Each well was read for 6 seconds. The untransformed data was then analyzed.

The target of experiment [4] is T2, recombinant human GABABR1a2. As to the kind of experiment: Ca2+ assay for determining GABAB receptor agonist activity. The class given is cell-based. To be noted: cells expressing recombinant human GABABR1a2. The procedure: The following procedure was used to determine the GABAB receptor agonist activity of a compound as reflected by activation of Ca^2+ signaling. HEK TREx cells expressing GABABR1a2 under tetracycline induction control, and Gqi chimeric protein (expressed constitutively), allowing GABABR coupling through the Ca^2+ signaling pathway were used in the experiments.
Cells were seeded in media containing tetracycline overnight at 100,000 cells/well, in black, clear-bottom, 96-well plates. The following morning, cells were washed twice with 100 μL HBSS buffer per well. Fluorescent Ca^2+ indicator dye was prepared using the materials and procedure described in the F362056 Fluo-4 NW Calcium Assay Kit (Invitrogen, Carlsbad, Calif.). Ten (10) mL of kit buffer and 100 μl of kit Probenecid were added to individual kit dye vials, and rolled back and forth several times to dissolve the dye. Cells were then loaded into the dye solution at 50 μL per well. The cells and dye were incubated for 30 min at 37° C., and then incubated for an additional 30 min at room temperature in the dark. Test compounds are dissolved in HBSS buffer at twice final concentration. Duplicate wells were used for each unique condition. Solution containing the test compound was added to the wells using a FLEXStation II (Molecular Devices, Sunnyvale, Calif.). Using the instrument in kinetic mode in which each well was read every 2 sec over a total collection time of 50 sec fluorescence was measured using an excitation wavelength 494 nm and a detection wavelength of 516 nm. A normalized fluorescence value for each well was calculated using the following procedure. The difference in fluorescence at 35 sec (usually representing maximal response) and at 15 sec (a time point prior to addition of test compounds) was calculated, divided by the fluorescence at 15 sec, and the result multiplied by 100. The final value represented the percent increase in fluorescence relative to the fluorescence at 15 sec. Data was analyzed using standard procedures.

Setting [5] is: cells expressing recombinant human GABABR1a2, read-out: cAMP EC50.

The structures appear in SMILES notation. Counter-ions that a name gives are not always drawn.

Here are results for 19 compounds from patent US8344028B2, “Gamma-amino-butyric acid derivatives as GABAB receptor ligands” (XenoPort, Inc., priority 2009, dated 2013).

T1 sequence (Q9Z0U4 20-960): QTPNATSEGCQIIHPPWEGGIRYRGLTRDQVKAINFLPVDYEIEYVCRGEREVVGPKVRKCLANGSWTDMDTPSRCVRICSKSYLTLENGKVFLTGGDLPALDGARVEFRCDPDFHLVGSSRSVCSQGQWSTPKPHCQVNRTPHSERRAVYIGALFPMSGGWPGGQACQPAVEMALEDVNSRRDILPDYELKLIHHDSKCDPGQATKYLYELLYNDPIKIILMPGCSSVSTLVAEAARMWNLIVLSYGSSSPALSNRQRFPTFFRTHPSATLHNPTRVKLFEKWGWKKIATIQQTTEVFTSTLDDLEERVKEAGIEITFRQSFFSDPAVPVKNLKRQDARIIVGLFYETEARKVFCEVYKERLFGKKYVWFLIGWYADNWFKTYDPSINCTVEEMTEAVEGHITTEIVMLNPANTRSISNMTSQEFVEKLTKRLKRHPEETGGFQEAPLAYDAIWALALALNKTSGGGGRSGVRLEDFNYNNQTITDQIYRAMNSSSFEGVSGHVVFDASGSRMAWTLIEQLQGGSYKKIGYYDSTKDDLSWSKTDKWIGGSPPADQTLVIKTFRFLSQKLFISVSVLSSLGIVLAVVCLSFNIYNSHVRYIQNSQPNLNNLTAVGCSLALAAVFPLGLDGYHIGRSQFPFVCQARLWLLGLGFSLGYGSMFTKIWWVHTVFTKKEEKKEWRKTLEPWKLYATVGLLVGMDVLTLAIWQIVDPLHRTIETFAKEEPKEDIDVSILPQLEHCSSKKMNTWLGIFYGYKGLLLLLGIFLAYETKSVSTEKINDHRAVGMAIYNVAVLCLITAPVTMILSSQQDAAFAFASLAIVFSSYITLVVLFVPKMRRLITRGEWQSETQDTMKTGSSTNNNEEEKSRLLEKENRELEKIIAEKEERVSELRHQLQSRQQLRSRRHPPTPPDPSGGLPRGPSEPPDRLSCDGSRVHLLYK
T1 sequence (O88871 41-940 partner): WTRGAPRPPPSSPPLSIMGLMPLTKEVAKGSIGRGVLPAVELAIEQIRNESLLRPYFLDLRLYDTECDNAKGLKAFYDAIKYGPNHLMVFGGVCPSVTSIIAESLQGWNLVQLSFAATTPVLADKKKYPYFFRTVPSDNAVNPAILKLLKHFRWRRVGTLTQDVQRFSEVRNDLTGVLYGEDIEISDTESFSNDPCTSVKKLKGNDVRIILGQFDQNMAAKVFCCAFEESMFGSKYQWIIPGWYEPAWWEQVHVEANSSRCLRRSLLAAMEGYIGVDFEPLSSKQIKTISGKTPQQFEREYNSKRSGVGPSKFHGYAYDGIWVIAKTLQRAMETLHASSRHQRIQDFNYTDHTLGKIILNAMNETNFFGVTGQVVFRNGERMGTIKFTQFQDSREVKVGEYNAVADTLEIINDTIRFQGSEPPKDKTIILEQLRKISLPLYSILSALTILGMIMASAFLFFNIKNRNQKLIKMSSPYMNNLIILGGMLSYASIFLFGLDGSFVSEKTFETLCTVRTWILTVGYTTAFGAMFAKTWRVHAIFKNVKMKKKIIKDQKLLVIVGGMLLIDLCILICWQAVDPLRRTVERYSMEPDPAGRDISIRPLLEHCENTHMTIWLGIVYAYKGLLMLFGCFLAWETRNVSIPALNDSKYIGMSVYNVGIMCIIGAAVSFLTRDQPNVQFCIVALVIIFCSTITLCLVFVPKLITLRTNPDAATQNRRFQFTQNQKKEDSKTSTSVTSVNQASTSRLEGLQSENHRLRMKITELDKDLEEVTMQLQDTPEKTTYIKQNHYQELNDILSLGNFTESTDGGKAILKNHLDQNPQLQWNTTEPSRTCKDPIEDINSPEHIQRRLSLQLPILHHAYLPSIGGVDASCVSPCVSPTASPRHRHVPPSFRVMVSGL
Chain of GABAB receptor (Homo sapiens, UniProt Q9UBS5) (Q9UBS5 20-961): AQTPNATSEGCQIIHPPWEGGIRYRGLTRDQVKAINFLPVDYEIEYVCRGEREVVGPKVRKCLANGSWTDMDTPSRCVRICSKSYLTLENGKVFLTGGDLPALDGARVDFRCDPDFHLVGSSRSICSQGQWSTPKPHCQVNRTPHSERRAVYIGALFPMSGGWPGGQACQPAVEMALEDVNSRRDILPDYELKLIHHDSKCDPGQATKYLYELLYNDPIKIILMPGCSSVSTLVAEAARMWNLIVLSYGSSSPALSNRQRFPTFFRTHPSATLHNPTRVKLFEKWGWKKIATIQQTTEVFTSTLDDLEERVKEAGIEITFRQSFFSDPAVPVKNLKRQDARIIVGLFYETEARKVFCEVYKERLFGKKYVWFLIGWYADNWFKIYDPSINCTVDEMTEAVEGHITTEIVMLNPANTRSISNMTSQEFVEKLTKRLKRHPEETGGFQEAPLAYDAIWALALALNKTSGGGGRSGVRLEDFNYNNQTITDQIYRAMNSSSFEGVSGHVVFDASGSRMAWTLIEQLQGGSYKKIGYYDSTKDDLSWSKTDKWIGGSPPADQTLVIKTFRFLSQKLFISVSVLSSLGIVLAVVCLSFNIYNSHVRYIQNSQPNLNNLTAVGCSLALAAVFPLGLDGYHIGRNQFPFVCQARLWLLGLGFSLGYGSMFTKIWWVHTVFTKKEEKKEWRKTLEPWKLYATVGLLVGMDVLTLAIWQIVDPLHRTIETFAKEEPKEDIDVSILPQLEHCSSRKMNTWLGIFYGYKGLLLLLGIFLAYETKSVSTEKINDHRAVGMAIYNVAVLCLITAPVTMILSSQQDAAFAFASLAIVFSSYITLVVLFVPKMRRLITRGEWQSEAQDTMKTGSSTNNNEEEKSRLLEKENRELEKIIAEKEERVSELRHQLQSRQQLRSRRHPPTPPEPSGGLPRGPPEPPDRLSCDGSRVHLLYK
Chain of GABAB receptor (Homo sapiens, UniProt Q9UBS5) (O75899 42-941 partner): as the sequence (O75899 42-941 partner) above

The term IC50 denotes the point on the concentration scale where inhibition reaches its midpoint. Higher therefore signals a need for much substance. As usually defined, the EC50 is the concentration needed to bring the measured effect to its halfway point. Turning to `Cl.NC[C@H](CC(=O)O)c1ccc(Cl)c(-c2cccnc2)c1` [Example 32, (3R)-4-Amino-3-(4-chloro-3-(3-pyridyl)phenyl)butanoic acid hydrochloride], the IC50 at GABAB receptor [1] was under 25000 nM. Moreover, the “GABAB receptor agonist or partial agonist activity” value at GABAB receptor [2] is “agonist or partial agonist activity”. The EC50 was under 100 nM in experiment [3] (setting [5]) and under 700 nM in experiment [4].

As to `Cl.NC[C@H](CC(=O)O)c1ccc(Cl)c(-c2cccc(C(=O)O)c2)c1` [Example 25, 3-{5-[(1R)-2-Amino-1-(carboxymethyl)ethyl]-2-chlorophenyl}benzoic acid hydrochloride], at GABAB receptor [1], the IC50 was under 25000 nM. In addition, on GABAB receptor [2], the “GABAB receptor agonist or partial agonist activity” value is recorded as “agonist or partial agonist activity”. For the same compound, the EC50 was under 100 nM in experiment [3] (setting [5]) and under 700 nM in experiment [4].

`Cl.NC[C@H](CC(=O)O)c1ccc(Cl)c(CCc2ccncc2)c1` [(3R)-4-amino-3-[4-chloro-3-(2-(4-pyridyl)ethyl)phenyl]butanoic acid hydrochloride] displayed an IC50 on GABAB receptor [1] of under 25000 nM. On GABAB receptor [2], the “GABAB receptor agonist or partial agonist activity” value is recorded as “agonist or partial agonist activity”. For the same compound, the half-maximal effective concentration (EC50) in experiment [3] (setting [5]) is under 100 nM; in experiment [4] it was under 700 nM.

Regarding `NC[C@H](CC(=O)O)c1ccc(Cl)c(OCc2cncs2)c1` [(3R)-4-amino-3-[4-chloro-3-(1,3-thiazol-5-ylmethoxy)phenyl]butanoic acid hydrochloride], at GABAB receptor [1], the 50% inhibitory concentration (IC50) was under 25000 nM. Further, the EC50 in experiment [3] (setting [5]) was under 100 nM; in experiment [4], under 700 nM.

With `CN(C)C(=O)c1ccc(-c2cc([C@H](CN)CC(=O)O)ccc2Cl)s1` [(3R)-4-amino-3-{3-[5-(N,N-dimethylcarbamoyl)(2-thienyl)]-4-chlorophenyl}butanoic acid hydrochloride], the IC50 on GABAB receptor [1] was under 25000 nM. Further, the EC50 in experiment [3] (setting [5]) is under 100 nM; in experiment [4], under 700 nM.

On GABAB receptor [1], `COC(=O)C[C@@H](CN)c1ccc(Cl)c(OCc2ccncc2)c1` [methyl (3R)-4-amino-3-[4-chloro-3-(4-pyridylmethoxy)phenyl]butanoate hydrochloride] gave an IC50 of under 25000 nM. Further, the EC50 in experiment [3] (setting [5]) was under 100 nM; in experiment [4], under 700 nM.

As to `N#Cc1ccc(-c2cc([C@H](CN)CC(=O)O)ccc2Cl)s1` [Example 29, (3R)-4-Amino-3-[4-chloro-3-(5-cyano-2-thienyl))phenyl]butanoic acid hydrochloride], at GABAB receptor [1], the IC50 is under 25000 nM. Besides, the “GABAB receptor agonist or partial agonist activity” value on GABAB receptor [2] is listed as “agonist or partial agonist activity”. For the same compound, the EC50 in experiment [3] (setting [5]) was under 100 nM; in experiment [4] it was under 700 nM.

In the case of `NCC(C[PH](=O)O)c1ccc(Cl)c(OCc2ccncc2)c1` (stereo not shown) [Example 82, 2-{4-Chloro-3-(4-pyridylmethoxy)phenyl]-3-(hydrohydroxyphosphoryl)propylamine], at GABAB receptor [1], the half-maximal inhibitory concentration (IC50) was under 25000 nM. Further, the EC50 in experiment [3] is under 100 nM; in experiment [4], under 700 nM.

Compound `NC[C@H](CC(=O)O)c1ccc(Cl)c(OCCc2ccncc2)c1` [(3R)-4-amino-3-[4-chloro-3-(2-(4-pyridyl)ethoxy)phenyl]butanoic acid hydrochloride] displayed an IC50 at GABAB receptor [1] of under 25000 nM. Moreover, the concentration giving a half-maximal response (EC50) in experiment [3] (setting [5]) is under 100 nM; in experiment [4] it was under 700 nM.

In the case of `Cc1cc(COc2cc([C@H](CN)CC(=O)O)ccc2Cl)ccn1` [(3R)-4-amino-3-{4-chloro-3-[(2-methyl(4-pyridyl))methoxy]phenyl}butanoic acid hydrochloride], at GABAB receptor [1], the IC50 is under 25000 nM. In addition, the half-maximal effective concentration (EC50) was under 100 nM in experiment [3] (setting [5]) and under 700 nM in experiment [4].

Regarding `Cl.NC[C@H](CC(=O)O)c1ccc(Cl)c(-c2ccc(C(=O)O)s2)c1` [Example 67, 5-{5-[(1R)-2-Amino-1-(carboxymethyl)ethyl]-2-chlorophenyl}thiophene-2-carboxylic acid hydrochloride], the IC50 at GABAB receptor [1] is under 25000 nM. Also, the “GABAB receptor agonist or partial agonist activity” value at GABAB receptor [2] is on record as “agonist or partial agonist activity”. Besides, the EC50 in experiment [3] (setting [5]) is under 100 nM; in experiment [4], under 700 nM.

Compound `N#Cc1cc(-c2cc([C@H](CN)CC(=O)O)ccc2Cl)cs1` [(3R)-4-amino-3-[4-chloro-3-(5-cyano(3-thienyl))phenyl]butanoic acid hydrochloride] had an IC50 at GABAB receptor [1] of under 25000 nM. The figures for the EC50 in experiment [3] (setting [5]) and in experiment [4] were under 100 nM and under 700 nM, respectively.

Compound `Cl.N#Cc1cccc(-c2cc([C@H](CN)CC(=O)O)ccc2Cl)c1` [Example 33, (3R)-4-Amino-3-[4-chloro-3-(3-cyanophenyl)phenyl]butanoic acid hydrochloride] had an IC50 at GABAB receptor [1] of under 25000 nM. Moreover, at GABAB receptor [2], the “GABAB receptor agonist or partial agonist activity” value was “agonist or partial agonist activity”. The EC50 in experiment [3] (setting [5]) was under 100 nM; in experiment [4], under 700 nM.

With `Cl.NC[C@H](CC(=O)O)c1ccc(Cl)c(NCc2cnc[nH]2)c1` [Example 60, (3R)-4-Amino-3-{4-chloro-3-[(imidazol-5-ylmethyl)amino]phenyl}butanoic acid hydrochloride], the IC50 on GABAB receptor [1] was under 25000 nM. For the same compound, the “GABAB receptor agonist or partial agonist activity” value at GABAB receptor [2] is reported as “agonist or partial agonist activity”. Also, the EC50 was under 100 nM in experiment [3] (setting [5]) and under 700 nM in experiment [4].

For `NC[C@H](CC(=O)O)c1ccc(Cl)c(-c2cc(C(=O)O)co2)c1` [5-{5-[(1R)-2-amino-1-(carboxymethyl)ethyl]-2-chlorophenyl}furan-3-carboxylic acid hydrochloride], the IC50 at GABAB receptor [1] was under 25000 nM. For the same compound, the EC50 is under 100 nM in experiment [3] (setting [5]) and under 700 nM in experiment [4].

`C[C@@H](Oc1cc([C@H](CN)CC(=O)O)ccc1Cl)c1ccncc1` [(3R)-3-[3-((1R)-1-(4-pyridyl)ethoxy)-4-chlorophenyl]-4-aminobutanoic acid hydrochloride] returned an IC50 on GABAB receptor [1] of under 25000 nM. The EC50 in experiment [3] (setting [5]) is under 100 nM; in experiment [4], under 700 nM.

Compound `NC[C@H](CC(=O)O)c1ccc(Cl)c(-c2cc(C(=O)O)cs2)c1` [5-{5-[(1R)-2-amino-1-(carboxymethyl)ethyl]-2-chlorophenyl}thiophene-3-carboxylic acid hydrochloride] displayed an IC50 at GABAB receptor [1] of under 25000 nM. Besides, the EC50 in experiment [3] (setting [5]) was under 100 nM; in experiment [4] it was under 700 nM.

As for `NC[C@H](CC(=O)O)c1ccc(Cl)c(OCc2ccncc2Cl)c1` [(3R)-4-amino-3-{4-chloro-3-[(3-chloro(4-pyridyl))methoxy]phenyl}butanoic acid hydrochloride], the concentration for half-maximal inhibition (IC50) at GABAB receptor [1] was under 25000 nM. Also, the EC50 in experiment [3] (setting [5]) was under 100 nM; in experiment [4], under 700 nM.

`NC[C@H](CC(=O)O)c1ccc(Cl)c(-c2ccc([N+](=O)[O-])cc2)c1` [Example 47, (3R)-4-Amino-3-[4-chloro-3-(4-nitrophenyl)phenyl]butanoic acid hydrochloride] returned an IC50 on GABAB receptor [1] of under 25000 nM. Also, the values for the EC50 in experiment [3] (setting [5]) and in experiment [4] were under 100 nM and under 700 nM, respectively.
